In patent US11351185B2, “Use of isovalerylspiramycins as anti-cancer agents to inhibit metastasis” (priority 2020, dated 2022):
“And” between values parts separate entries of the source, which are not always exact repeats. Equal values may be shown once. “Also recorded” adds a separate entry of the source.

Experiments:
[1] = test system: renal cell carcinoma (RCC) cell lines ACHN, UM-RC-2, RCC4 and 786-O; test: CCK8 cell viability assay, renal cell carcinoma cell lines; type: cell-based; conditions: 48 hours
Procedure: (§1) To confirm the cytotoxic effect observed in the glioblastoma cell lines, the inventors assessed ISP I's effect on renal cell carcinoma (RCC) cell lines (ACHN, UM-RC-2, RCC4 and 786-0). Cell viability was assessed similarly via CKK8 analysis. […] (FIG. 4C, D).
Cell viability was measured by Cell Counting Kit-8 (CCK-8, Dojindo Molecular Technologies, Tokyo, Japan). Cells were seeded in 96-well plates at a density of 3×10^3 cells/well and cultured for 24 hours before treatment with ISP I at different concentration. After treatment for a gradient ISP I concentration from 0 to 20 μg/ml for 48 hours, while control groups were only treated in PBS solution, 10 μl of CCK-8 solution were added to each well and cells were incubated for an additional 2 hours. The absorbance in each well at a wavelength of OD450 was detected by the Synergy H1 microplate reader, a product of BioTek (Winooski, Vt. USA).

[2] = test system: 786-O and RCC4 cells; test: Annexin V apoptosis flow cytometry, RCC cells; type: cell-based
Procedure: as §1
Cells (2×10^5) were plated in 6-well plates and treated with different concentrations of ISP I. Then the cells were harvested and washed three times with PBS. Cells were resuspended in 100 μl binding buffer and were incubated with 5 μl APC-conjugated Annexin V working solution, a product of BD bioscience (Franklin Lakes, N.J. USA), and 1 μl propidium iodide (PI), a product of Invitrogen, for 15 min at room temperature with protection from light. Data acquisition and quantification were processed with BD LSRFortessa flow cytometer, using FlowJo software (Ashland, Oreg. USA).

[3] = test system: intracellular ROS; test: ROS-Glo H2O2 assay; type: cell-based; conditions: 24 hours
Procedure: (§2) Since glutathione peroxidase catalyzes the reduction of reactive oxidative species (ROS), the inventors assessed whether treatment with ISP I increased the generation of ROS in glioblastoma cell lines (LN229 and U251) and RCC cell lines (786-O and RCC4).
Cell ROS level change brought about by ISP I was measured by ROS-Glo H2O2 assay kit, a product of Promega (Madison, Wis. USA). After treatment with ISP I for 24 hours, H2O2 substrate was added and cells were incubated for 6 hours. After incubation the supernatant was collected and was incubated with ROS-Glo™ Detection Solution for 20 min at room temperature with protection from light. Luciferase data were obtained with the Synergy H1 microplate reader, a product of BioTek (Winooski, Vt. USA).

[4] = test system: mitochondrial ROS (superoxide); test: MitoSOX staining, flow cytometry; type: cell-based; conditions: 24 hours
Procedure: as §2
To detect changes in mitochondrial superoxide after treatment with ISP I, the inventors used the MitoSOX Red mitochondrial superoxide indicator kit, a product of ThermoFisher Scientific. […] Cells were incubated with 5 μM MitoSOX Red for 15 min at room temperature, followed by flow cytometry analysis. Excitation by means of a 561 nm laser and a 610/20 discriminating filter was applied by a BD LSRFortessa flow cytometer.

[5] = test system: pre-rRNA (POL1 transcript); test: pre-rRNA transcription, real-time RT-PCR; type: cell-based; conditions: LN229 cells
Procedure: SELH is localized in the nucleolus, which is a sensor of oxidative stress. Yang et al., Nature communications 7: 13599 (2016); Novoselov et al., J. Biol. Chem. 282: 11960 (2007). […] JNK2 activation by oxidative stress inactivated RNA polymerase I (POL1) transcription factor TIF1A in the nucleoli to down-regulate rRNA synthesis. Mayer et al., Genes Dev. 19: 933 (2005). To investigate whether the ribosomal biogenesis was disrupted by ISP I, pre-rRNA transcription was evaluated using real-time RT-PCR analysis in LN229 cells. […] To examine the mechanisms by which ISP I disrupts POL1 transcription, the inventors initially evaluated JNK2 activity and the overall state of the transcription machinery in ISP I-treated LN229 cells.

[6] = Tolerability in xenograft mouse models (bodyweight, histopathology, clinical chemistry); type: in vivo, mice
[7] = test system: human cancer lines; conditions: MCF-7, MDA-MB-231, HepG2, A549, H460, H1299, 786-0, 769-P, U251, A172, U937, HeLa, PC3, PANC-1, TE-1, SGC-7901, HT-29, HL-60; cited from earlier work
[8] = target: T1, SELH (Homo sapiens, UniProt Q8IZQ5); test: Drug affinity responsive target stability (DARTS) assay; type: binding; set-up: endogenous in cells; host or cells: LN229; conditions: LN229 lysate; ISP I 40 μg/mL
T1 sequence (Q8IZQ5 1-122): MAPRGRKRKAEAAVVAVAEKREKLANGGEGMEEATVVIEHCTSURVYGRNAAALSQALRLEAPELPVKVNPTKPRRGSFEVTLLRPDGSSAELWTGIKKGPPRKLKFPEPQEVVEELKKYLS
Procedure: To identify ISP I's molecular target, the inventors performed drug affinity responsive target stability (DARTS) assay in LN229 cells.
The inventors discovered that the binding of ISP I to its target proteins temporarily locks them into a stable conformational structure, which prevents their recognition by proteases. After evading protease degradation, the identity of ISP I's target proteins was determined using mass spectroscopy.
DARTS assay data were taken to identify the target of ISP I in vitro. For this assay, the invenots used the protocol published by Lomenick et al., Proc. Nat'l Acad. Sci. USA 106: 21984 (2009). Briefly, LN229 cells were lysed with M-PER (Pierce) supplemented with protease and phosphatase inhibitors. After centrifugation at 14,000 rpm for 15 min, lysates were diluted to the same final volume and protein concentration with M-PER and were dissolved in TNC buffer [50 mM Tris-HCl (pH 8.0), 50 mM NaCl, 10 mM CaCl2)]. All steps were performed on ice or at 4° C. to help prevent premature protein degradation. […] Peptides were analyzed by LC/MS/MS on a Thermo LTQ-Orbitrap mass spectrometer with an Eksigent LC pump. For quantitative comparison of protein and peptide abundances, MS spectra were analyzed by means of the differential workflow of Rosetta Elucidator (Rosetta Inpharmatics).

[9] = LN229, 786-O and IOMM xenograft mouse models

With `COC1C(O)CC(=O)OC(C)CC=CC=CC(OC2CCC(N(C)C)C(C)O2)C(C)CC(CC=O)C1OC1OC(C)C(OC2CC(C)(O)C(OC(=O)CC(C)C)C(C)O2)C(N(C)C)C1O` (stereo not shown) [ISP I, 4″-isolvalerylspiramycin I] the “cytotoxic effect on RCC cell lines” value [1] was “demonstrated a cytotoxic effect”, the “most / least sensitive RCC cell line to cytotoxic effect” value ([1]; ACHN, UM-RC-2, RCC4, 786-O) was “ACHN appeared to be the most sensitive and 786-O demonstrated to be the least sensitive” and the “apoptosis (Annexin V stain)” value [2] was “induced a dose-dependent apoptosis”. For the same compound, the “intracellular ROS level (ROS-Glo H2O2)” value ([3]; 786-O and RCC4, 10 μg/ml) was “increased intracellular ROS levels”, the “intracellular ROS level (ROS-Glo H2O2)” value ([3]; LN229 and U251, 10 μg/mL) was “increased intracellular ROS levels” and the “mitochondrial ROS (MitoSOX)” value ([4]; LN229 and U251, 5 μg/mL or 10 μg/mL) was “increase of mitochondrial ROS accumulation; also recorded: higher intracellular ROS in a dose-dependent manner”. The “mitochondrial ROS (MitoSOX)” value ([4]; RCC cells 786-O and RCC4, 5 μg/ml or 10 μg/ml) was “increase in mitochondrial ROS accumulation; also recorded: higher intracellular ROS in a dose-dependent manner”, the pre-rRNA transcription [5] was “decreased pre-rRNA transcription in a dose-dependent manner; also recorded: reduced Pre-rRNA (PoL1 transcript) in a dose-dependent manner” and the “histopathology of major organs and standard clinical chemistry” value ([6]; 24 days after treatment) was “no hematologic, renal, pancreatic or liver toxicities”. The bodyweight during treatment [6, 9] was “bodyweight maintenance; also recorded: animals maintained their bodyweight”, the tolerability of treatment [6, 9] was “well-tolerated” and the “effect on proliferation in vitro of human cancer lines” value [7] was “inhibitory effect”. For the same compound, the “protein protected from protease (target identification by mass spectroscopy)” value [8] was “SELH was the most abundant primary protein present”.
